Data as given in EPA's ToxValDB 9.5 (doi:10.2903/j.efsa.2006.62r).
Converted amounts (≈) assume the structure as drawn.

Legend:
Apis mellifera = details: acute, mortality
Canidae = details: oral, Dog Other, neurology
Daphnia magna = details: chronic/long-term; growth
Folsomia candida = details: chronic/long-term; reproduction
Hypoaspis aculeifer = details: chronic/long-term; duration: 14 days; mortality
Lepomis macrochirus = details: acute; duration: 96 hours; mortality
Oncorhynchus mykiss = details: chronic/long-term; duration: 91 days; development
Oryctolagus sp. = details: developmental; development
Rattus norvegicus = details: acute; M; mortality
Aphidius rhopalosiphi = assay: LR50; higher = less toxic; details: not reported; mortality
Bibionidae = details: chronic/long-term; other

Row | Compound | LD50 (Apis mellifera; duration: 48 hours, dermal) [µg/piece] | LD50 (Apis mellifera; oral, unspecified) [µg/piece] | NOAEL (Canidae; acute) [mg/kg-day] | NOAEL (Canidae; chronic, duration: 1 years) [mg/kg-day] | LEL (Colinus virginianus; acute, oral, M) [mg/kg-day] | NOEC (Colinus virginianus; reproduction developmental, M/F) [mg/kg-day] | LEC (Colinus virginianus; short-term, oral, diet) [mg/kg-day] | NOEC (Daphnia magna) [mg/L] | NOEC (Folsomia candida) [mg/kg] | NOEC (Hypoaspis aculeifer) [mg/kg] | LC50 (Lepomis macrochirus) [ng/mL] | NOEC (Oncorhynchus mykiss) [mg/L] | NOAEL (Oryctolagus sp.) [mg/kg-day] | LD50 (Rattus norvegicus) [mg/kg] | LC50 (Tagia sp.; acute, duration: 14 days, mortality) [mg/kg] | NOEC (Tagia sp.; chronic/long-term, duration: 8 weeks, reproduction) [g/ha] | LR50 (Aphidius rhopalosiphi) [g/ha] | NOEC (Bibionidae) [mg/L]
1 | CCOP(=O)(NC(C)C)Oc1ccc(SC)c(C)c1 (stereo not given) [Fenamiphos] | 0.28 | 0.45 | 0.25 | 0.083 | 0.8 | 0.2 | 6 | 0.00012 | 0.313 | 1.33 | 9.3 (≈ 0.0307 µM) | 0.0038 | 0.3 | 6 | 888 | < 6000 | 0.175 | –
2 | CCOP(=O)(NC(C)C)Oc1ccc(S(C)(=O)=O)c(C)c1 (stereo not given) [Fenamiphos sulfone] | – | – | – | – | – | – | – | – | 3.75 | – | – | – | – | – | – | – | – | –
3 | CCOP(=O)(NC(C)C)Oc1ccc(S(C)=O)c(C)c1 (stereo not given) [Fenamiphos sulfoxide] | – | – | – | – | – | – | – | – | 2 | – | – | – | – | – | – | – | – | 0.058
